Patent US6645983B1, “Pharmaceutical compositions comprising 4-quinolones for treating cancers” (Laboratoire L. Lafon, priority 1999, dated 2003)

Tested on: SW1088
Test: MTT test, cytotoxic activity on non-clonogenic cell lines
Type: cell-based
Conditions: Homo sapiens, 10^−5 M, 72 hours of incubation, control condition = 100%, mean value, read-out: mean optical density as percentage of control, SW1088
Method: (§1) The principle of the MTT test is based on the mitochondrial reduction, by the metabolically active live cells, of the yellow-colored product MTT (3-(4,5-dimethylthiazol-2-yl)-2,5-diphenyltetrazolium bromide) to a blue-colored product, formazan. The amount of formazan thus obtained is directly proportional to the amount of live cells present in the culture well(s). This amount of formazan is measured by spectrophotometry.
(§2) The cell lines are maintained as a monolayer culture at 37° C. in stoppered culture dishes containing MEM 25 MM HEPES (Minimum Essential Medium) base medium. This medium is suited to the growth of a range of various mammalian diploid or primary cells. This medium is then supplemented with:
(§3) The 12 human cancer cell lines which were used were obtained from the American Type Culture Collection (ATCC, Rockville, Md., USA). These 12 cell lines are:
SW1088 (code ATCC: HTB-12) which is an astro-cytoma,
(§4) Experimentally, 100 μl of a cell suspension containing 20 000 to 50 000 (depending on the cell type used) cells/ml of culture medium are inoculated -in 96-well flat-bottomed multi-well plates and are left to stand in an incubator at 37° C., 5% CO2 and 70% humidity. After an incubation time of 24 hours, the culture medium is replaced with 100 μl of fresh medium containing either the various test compounds—at concentrations varying from 10^−5 to 10^−10 M—or the solvent having served for dissolving the products to be tested (control condition). […] The microplates are thus incubated for 3 hours at 37° C., then centrifuged for 10 minutes at 400 g. The yellowish solution of MTT is removed and the blue formazan crystals formed in the cell region are dissolved in 100 μl or DMSO. The microplates are then shaken for 5 minutes. […] Software incorporated in the spectrophotometer calculates the average optical density values and the standard deviation (SD) and standard error of mean (SEM) values.

First: COc1ccc(-c2c[nH]c3cc(OC)c(OC)cc3c2=O)cc1 [CRL8354, 6,7-Dimethoxy-3-(4-methoxyphenyl)-1,4-dihydro-4-quinolinone]
Second: COc1cc2[nH]cc(-c3ccccc3)c(=O)c2cc1OC [CRL8355, 6,7-Dimethoxy-3-phenyl-1,4-dihydro-4-quinolinone]
The viability at 10 µM of the first is lower: 93.2% for the first, 97.5% for the second.

Tested on: A549
Test: as above
Type: cell-based
Conditions: Homo sapiens, 10^−5 M, 72 hours of incubation, control condition = 100%, mean value, read-out: mean optical density as percentage of control, A549
Method: as §1, §2, §3, §4

First: COc1ccc(-c2c[nH]c3cc(OC)c(OC)cc3c2=O)cc1 [CRL8354, 6,7-Dimethoxy-3-(4-methoxyphenyl)-1,4-dihydro-4-quinolinone]
Second: COc1cc2[nH]cc(-c3ccccc3)c(=O)c2cc1OC [CRL8355, 6,7-Dimethoxy-3-phenyl-1,4-dihydro-4-quinolinone]
The viability at 10 µM of the first is lower: 98.5% for the first, 98.6% for the second.

Tested on: HCT-15
Test: as above
Type: cell-based
Conditions: Homo sapiens, 10^−5 M, 72 hours of incubation, control condition = 100%, mean value, read-out: mean optical density as percentage of control, HCT-16
Method: as §1, §2, §3, §4

Going from COc1ccc(-c2c[nH]c3cc(OC)c(OC)cc3c2=O)cc1 [CRL8354, 6,7-Dimethoxy-3-(4-methoxyphenyl)-1,4-dihydro-4-quinolinone] to COc1cc2[nH]cc(-c3ccccc3)c(=O)c2cc1OC [CRL8355, 6,7-Dimethoxy-3-phenyl-1,4-dihydro-4-quinolinone], the viability at 10 µM rises from 95.9% to 99.5%.

Tested on: U-373MG
Test: as above
Type: cell-based
Conditions: Homo sapiens, U373 MG; 10^−5 M, 72 hours of incubation, control condition = 100%, mean value; read-out: mean optical density as percentage of control, U-373MG
Method: as §1, §2, §3, §4

COc1ccc(-c2c[nH]c3cc(OC)c(OC)cc3c2=O)cc1 [CRL8354, 6,7-Dimethoxy-3-(4-methoxyphenyl)-1,4-dihydro-4-quinolinone] and COc1cc2[nH]cc(-c3ccccc3)c(=O)c2cc1OC [CRL8355, 6,7-Dimethoxy-3-phenyl-1,4-dihydro-4-quinolinone] are the same in viability at 10 µM: 97.7% for the first, 97.7% for the second.

Tested on: A-427
Test: as above
Type: cell-based
Conditions: Homo sapiens, 10^−5 M, 72 hours of incubation, control condition = 100%, mean value, read-out: mean optical density as percentage of control, A-427
Method: as §1, §2, §3, §4

Compared with COc1ccc(-c2c[nH]c3cc(OC)c(OC)cc3c2=O)cc1 [CRL8354, 6,7-Dimethoxy-3-(4-methoxyphenyl)-1,4-dihydro-4-quinolinone], COc1cc2[nH]cc(-c3ccccc3)c(=O)c2cc1OC [CRL8355, 6,7-Dimethoxy-3-phenyl-1,4-dihydro-4-quinolinone] is higher in viability at 10 µM: 97.2% for the first, 103% for the second.

Tested on: T-47D
Test: as above
Type: cell-based
Conditions: Homo sapiens, T47D; 10^−5 M, 72 hours of incubation, control condition = 100%, mean value; read-out: mean optical density as percentage of control, T-47D
Method: as §1, §2, §3, §4

Compared with COc1ccc(-c2c[nH]c3cc(OC)c(OC)cc3c2=O)cc1 [CRL8354, 6,7-Dimethoxy-3-(4-methoxyphenyl)-1,4-dihydro-4-quinolinone], COc1cc2[nH]cc(-c3ccccc3)c(=O)c2cc1OC [CRL8355, 6,7-Dimethoxy-3-phenyl-1,4-dihydro-4-quinolinone] is lower in viability at 10 µM: 104% for the first, 98.5% for the second.

Tested on: LoVo
Test: as above
Type: cell-based
Conditions: Homo sapiens, 10^−5 M, 72 hours of incubation, control condition = 100%, mean value, read-out: mean optical density as percentage of control, LoVo
Method: as §1, §2, §3, §4

Going from COc1ccc(-c2c[nH]c3cc(OC)c(OC)cc3c2=O)cc1 [CRL8354, 6,7-Dimethoxy-3-(4-methoxyphenyl)-1,4-dihydro-4-quinolinone] to COc1cc2[nH]cc(-c3ccccc3)c(=O)c2cc1OC [CRL8355, 6,7-Dimethoxy-3-phenyl-1,4-dihydro-4-quinolinone], the viability at 10 µM rises from 98.4% to 98.7%.

Tested on: U-87MG
Test: as above
Type: cell-based
Conditions: Homo sapiens, U-87 MG; 10^−5 M, 72 hours of incubation, control condition = 100%, mean value; read-out: mean optical density as percentage of control, U-87MG
Method: as §1, §2, §3, §4

First: COc1ccc(-c2c[nH]c3cc(OC)c(OC)cc3c2=O)cc1 [CRL8354, 6,7-Dimethoxy-3-(4-methoxyphenyl)-1,4-dihydro-4-quinolinone]
Second: COc1cc2[nH]cc(-c3ccccc3)c(=O)c2cc1OC [CRL8355, 6,7-Dimethoxy-3-phenyl-1,4-dihydro-4-quinolinone]
The viability at 10 µM of the first is higher: 102% for the first, 94.4% for the second.

Tested on: MCF7
Test: as above
Type: cell-based
Conditions: Homo sapiens, 10^−5 M, 72 hours of incubation, control condition = 100%, mean value, read-out: mean optical density as percentage of control, MCF7
Method: as §1, §2, §3, §4

Compared with COc1ccc(-c2c[nH]c3cc(OC)c(OC)cc3c2=O)cc1 [CRL8354, 6,7-Dimethoxy-3-(4-methoxyphenyl)-1,4-dihydro-4-quinolinone], COc1cc2[nH]cc(-c3ccccc3)c(=O)c2cc1OC [CRL8355, 6,7-Dimethoxy-3-phenyl-1,4-dihydro-4-quinolinone] is lower in viability at 10 µM: 102% for the first, 94.8% for the second.

Tested on: PC-3
Test: as above
Type: cell-based
Conditions: Homo sapiens, 10^−5 M, 72 hours of incubation, control condition = 100%, mean value, read-out: mean optical density as percentage of control, PC-3
Method: as §1, §2, §3, §4

Going from COc1ccc(-c2c[nH]c3cc(OC)c(OC)cc3c2=O)cc1 [CRL8354, 6,7-Dimethoxy-3-(4-methoxyphenyl)-1,4-dihydro-4-quinolinone] to COc1cc2[nH]cc(-c3ccccc3)c(=O)c2cc1OC [CRL8355, 6,7-Dimethoxy-3-phenyl-1,4-dihydro-4-quinolinone], the viability at 10 µM rises from 93.7% to 100%.

Tested on: not listed separately
Test: Determination of the maximum tolerated dose (MTD)
Conditions: B6D2F1/Jico, mouse, in vivo, ip; single intraperitoneal administration, doses 2.5 to 160 mg/kg, survival over 14 days
Method: The evaluation of the maximum tolerated dose was performed on 4- to 6-week-old B6D2F1/Jico mice. The compounds were administered intraperitoneally at increasing doses ranging from 2.5 to 160 mg/kg. The value of the MTD (expressed in mg/kg) is determined from the observation of the survival rate of the animals over a 14-day period after a single administration of the product under consideration. The change in weight of the animals is also monitored during this period. When the MTD value is greater than 160 mg/kg, the MTD value is considered as being 160 mg/kg by default.

COc1ccc(-c2c[nH]c3cc(OC)c(OC)cc3c2=O)cc1 [CRL8354, 6,7-Dimethoxy-3-(4-methoxyphenyl)-1,4-dihydro-4-quinolinone] and COc1cc2[nH]cc(-c3ccccc3)c(=O)c2cc1OC [CRL8355, 6,7-Dimethoxy-3-phenyl-1,4-dihydro-4-quinolinone] cannot be ordered by MTD at 14 day: over 160 mg/kg for the first, over 160 mg/kg for the second.

Tested on: J82
Test: MTT test, cytotoxic activity on non-clonogenic cell lines
Type: cell-based
Conditions: Homo sapiens, 10^−5 M, 72 hours of incubation, control condition = 100%, mean value, read-out: mean optical density as percentage of control, J82
Method: as §1, §2, §3
(§5) J82 (code ATCC: HTB-1) and T24 (code ATCC: HTB-4) which are two bladder cancers,
as §4

Compared with COc1ccc(-c2c[nH]c3cc(OC)c(OC)cc3c2=O)cc1 [CRL8354, 6,7-Dimethoxy-3-(4-methoxyphenyl)-1,4-dihydro-4-quinolinone], COc1cc2[nH]cc(-c3ccccc3)c(=O)c2cc1OC [CRL8355, 6,7-Dimethoxy-3-phenyl-1,4-dihydro-4-quinolinone] is lower in viability at 10 µM: 98.2% for the first, 94.9% for the second.

Tested on: T24
Test: as above
Type: cell-based
Conditions: Homo sapiens, T-24; 10^−5 M, 72 hours of incubation, control condition = 100%, mean value; read-out: mean optical density as percentage of control, T24
Method: as §1, §2, §3, §5, §4

First: COc1ccc(-c2c[nH]c3cc(OC)c(OC)cc3c2=O)cc1 [CRL8354, 6,7-Dimethoxy-3-(4-methoxyphenyl)-1,4-dihydro-4-quinolinone]
Second: COc1cc2[nH]cc(-c3ccccc3)c(=O)c2cc1OC [CRL8355, 6,7-Dimethoxy-3-phenyl-1,4-dihydro-4-quinolinone]
The viability at 10 µM of the first is higher: 91.4% for the first, 89.4% for the second.
